Results taken from patent publication US6218438A, “Copolymer compositions for treating viral infections” (Supratek Pharma, Inc., priority 1999, dated 2001).

How the values were obtained:
[1] = Solubility of Fe(III)BBNH in organic solutions with various salts and pH; format: physicochemical
Protocol: The samples of Fe(III)BBNH (1 mg of each) were placed in 1 ml of following range of solvents:
The samples were intensively agitated during three hours at room temperature using a rotator. After that the samples were centrifuged at 10,000 g for 10 min. The supernatants (500 μl each) were separated and then dried by using a speed-vac centrifuge. Each sample was dissolved in 500 μl DMSO and the aliquots (50 μl each) were transferred to 96-well plate. The optical densities were determined at λ400 nm using a microplate reader. Fe(III)BBNH concentrations in the samples were then determined by using the calibration shown in Example 4A. Each concentration of Fe(III)BBNH was analyzed in triplicates.

[2] = Solubility of Fe(III)BBNH in Pluronic P85 formulations; format: physicochemical
Protocol: Various amounts of Fe(III)BBNH were dissolved in 200 μl dimethyl formamide and aliquots (20 μl each) were mixed with the equal volumes of Pluronic P85 solutions of various concentrations in methanol. The water solution of sodium acetate (10 μl) was added to each sample to the final concentration of the salt of 60 mM. The samples were dried by using a speed-vac centrifuge. Each sample was dissolved in 100 μl of 10% Pluronic P85 solution in water. The samples were intensively agitated during two hours at room temperature using a rotator. After that the samples were centrifuged at 10,000 g for 10 min. The supernatants were separated and then diluted with 10% Pluronic P85 solution in water to fit the range of calibration curve. The aliquots (50 μl each) were transferred to 96-well plate and analyzed. The optical densities were determined at λ400 nm using a microplate reader. Fe(III)BBNH concentrations in the samples were then determined by using the calibration shown in Example 4A. Each concentration of Fe(III)BBNH was analyzed in triplicates. Each concentration of Fe306 was measured in triplicates.

MT2 cells = test: Cytotoxic activity against uninfected MT2 cells (XTT assay); format: cell-based, human; conditions: 4 days at 37° C., in DMSO
Protocol: BBNH and Fe(III)-BBNH complex at various concentrations were examined for cytotoxic activity against uninfected MT2 cells. Aliquots of a solution of the compounds in dimethyl sulfoxide were added to the MT2 cells (2×10^5 cells/ml) in RPMI medium containing 10% fetal bovine serum to provide defined final concentrations of test compound. The cells and test compounds were cultured for 4 days at 37° C., in the presence of 5% CO2 and then cytotoxic effect of the compounds was analyzed by using the standard XTT assay. The CC50 calculated from the results were 10±0.5 μM for BBNH and more than 1000 μM for Fe(III)-BBNH.

[3] = Solubility in a water medium (general statement); format: physicochemical
[4] = target: T1, HIV-1 reverse transcriptase (p51/p66 RT), RNAse H activity (Human immunodeficiency virus type 1 group M subtype B, UniProt P03366); test: Inhibition of RNAse H activity of RT; format: biochemical
T1 construct: 10 ng of p51/p66 heterodimeric RT per assay were used
Protocol: BBNH and Fe(III)-BBNH complex at various concentrations were examined for the ability to inhibit RNA dependent and DNA dependent DNA polymerase activities as well as RNAse H activity of HIV-1 reverse transcriptase (RT RDDP, RT DDDP, and RT RNAse H, respectively). To analyze RT RDDP and RT DDDP the following reaction mixture (100 μl total volume) was used: 50 mM Tris-HCl (pH 7.8), 60 mM KCl, 10 mM MgCl2, 10 ng of p51/p66 RT, 0.1-0.5 units of template/primer, and 0.5-25 μM [^3 H]dNTP. Aliquots of the test compounds dissolved in DMSO were added to the reaction mixtures, incubated for 10-20 min. at 37° C. and than quenched with 500 μl of cold 20 mM sodium pyrophosphate in 10% dichloroacetic acid. After 10 min. on ice, the samples were filtered on Whatman 934-AH glass fiber filters and washed with 10% dichloroacetic acid and ethanol, and the radioactivity was determined by liquid scintillation analysis. To analyze RT RNAse H the following reaction mixture (50 μl total volume) was used: 5OmM Tris-HCl (pH 8.0), 60 mM KCl, 8 mM MgCl2, and variable amounts of ([^3 H]rG)-poly(dC). Generally, 10 ng of p51/p66 heterodimeric RT per assay were used. Aliquots of the test compounds dissolved in DMSO were added to the reaction mixtures, incubated for 20 min. at 37° C. and than quenched by placing the tubes on ice followed by the addition of 100 μl of cold 7% perchloric acid. After 10 min. on ice, the samples were centrifuged at 12,000 g for 15 min. 100 μl of the supernatants were carefully removed, and the radioactivity was determined by liquid scintillation analysis.

CC(C)(C)c1ccc(C(=O)NN=Cc2c(O)ccc3ccccc23)cc1.C[O-].[Cl-].[Cl-].[Fe+3] [Fe(III)-BBNH]
Concentration of Fe306 dissolved in the sample ([1]; Acetonitrile:10% Ammonium Acetate (0.01 M) pH 3.0): 125.7 µg/mL
Concentration of Fe306 dissolved in the sample ([1]; Acetonitrile:10% Ammonium Acetate (0.01 M) pH 5.0, 180 min): 223.9 µg/mL
Concentration of Fe306 dissolved in the sample ([1]; Acetonitrile:10% Ammonium Acetate (0.01 M) pH 7.0, 180 min): 304.7 µg/mL
Concentration of Fe306 dissolved in the sample ([1]; Acetonitrile:10% Ammonium Formate (0.01 M) pH 3.0): 172.9 µg/mL
Concentration of Fe306 dissolved in the sample ([1]; Acetonitrile:10% Ammonium Formate (0.01 M) pH 5.0, 180 min): 233.6 µg/mL
Concentration of Fe306 dissolved in the sample ([1]; Acetonitrile:10% Ammonium Formate (0.01 M) pH 6.2, 180 min): 200.1 µg/mL
Concentration of Fe306 dissolved in the sample ([1]; Methanol:10% 0.01 M phosphate buffer pH 3.0): 14.4 µg/mL
Concentration of Fe306 dissolved in the sample ([1]; Methanol:10% 0.01 M phosphate buffer pH 5.0, 180 min): 14.9 µg/mL
Concentration of Fe306 dissolved in the sample ([1]; Methanol:10% Ammonium Acetate (0.01 M) pH 3.0): 26.2 µg/mL
Concentration of Fe306 dissolved in the sample ([1]; Methanol:10% Ammonium Acetate (0.01 M) pH 5.0, 180 min): 76.6 µg/mL
Concentration of Fe306 dissolved in the sample ([1]; Methanol:10% Ammonium Acetate (0.01 M) pH 7.0, 180 min): 94.4 µg/mL
Concentration of Fe306 dissolved in the sample ([1]; Methanol:10% Ammonium Formate (0.01 M) pH 3.0): 50.9 µg/mL
Concentration of Fe306 dissolved in the sample ([1]; Methanol:10% Ammonium Formate (0.01 M) pH 5.0, 180 min): 43.4 µg/mL
Concentration of Fe306 dissolved in the sample ([1]; Methanol:10% Ammonium Formate (0.01 M) pH 6.2, 180 min): 31.2 µg/mL
Solubility ([2]; 1% P85, 1 mg/ml added, 120 min): 1120 µg/mL
Solubility ([2]; 1% P85, 2 mg/ml added): 2120 µg/mL
Solubility ([2]; 1% P85, 5 mg/ml added): 1400 µg/mL
Solubility ([2]; 1% P85, 10 mg/ml added, 120 min): 1390 µg/mL
Solubility ([2]; 1% P85, 20 mg/ml added, 120 min): 730 µg/mL
Solubility ([2]; 1% P85, 30 mg/ml added, 120 min): 10 µg/mL
Solubility ([2]; 1% P85, 40 mg/ml added, 120 min): 30 µg/mL
Solubility ([2]; 2% P85, 1 mg/ml added, 120 min): 1130 µg/mL
Solubility ([2]; 2% P85, 2 mg/ml added): 2160 µg/mL
Solubility ([2]; 2% P85, 5 mg/ml added): 5020 µg/mL
Solubility ([2]; 2% P85, 10 mg/ml added, 120 min): 3100 µg/mL
Solubility ([2]; 2% P85, 20 mg/ml added, 120 min): 2710 µg/mL
Solubility ([2]; 2% P85, 30 mg/ml added, 120 min): 2390 µg/mL
Solubility ([2]; 2% P85, 40 mg/ml added, 120 min): 420 µg/mL
Solubility ([2]; 3% P85, 1 mg/ml added, 120 min): 1040 µg/mL
Solubility ([2]; 3% P85, 2 mg/ml added): 2240 µg/mL
Solubility ([2]; 3% P85, 5 mg/ml added): 5060 µg/mL
Solubility ([2]; 3% P85, 10 mg/ml added, 120 min): 7420 µg/mL
Solubility ([2]; 3% P85, 20 mg/ml added, 120 min): 5150 µg/mL
Solubility ([2]; 3% P85, 30 mg/ml added, 120 min): 5140 µg/mL
Solubility ([2]; 3% P85, 40 mg/ml added, 120 min): 2960 µg/mL
Solubility ([2]; 5% P85, 1 mg/ml added, 120 min): 1090 µg/mL
Solubility ([2]; 5% P85, 2 mg/ml added): 2080 µg/mL
Solubility ([2]; 5% P85, 5 mg/ml added): 5090 µg/mL
Solubility ([2]; 5% P85, 10 mg/ml added, 120 min): 10510 µg/mL
Solubility ([2]; 5% P85, 20 mg/ml added, 120 min): 10360 µg/mL
Solubility ([2]; 5% P85, 30 mg/ml added, 120 min): 12250 µg/mL
Solubility ([2]; 5% P85, 40 mg/ml added, 120 min): 10480 µg/mL
Solubility ([2]; 10% P85, 1 mg/ml added, 120 min): 1080 µg/mL
Solubility ([2]; 10% P85, 2 mg/ml added): 2060 µg/mL
Solubility ([2]; 10% P85, 5 mg/ml added): 5160 µg/mL
Solubility ([2]; 10% P85, 10 mg/ml added, 120 min): 10710 µg/mL
Solubility ([2]; 10% P85, 20 mg/ml added, 120 min): 19060 µg/mL
Solubility ([2]; 10% P85, 30 mg/ml added, 120 min): 22870 µg/mL
Solubility ([2]; 10% P85, 40 mg/ml added, 120 min): 26240 µg/mL
CC50 (MT2 cells): > 1000 µM
solubility in a water medium [3]: practically insoluble in a water medium
IC50 ([4]; 10 min. preincubation): 0.5 ± 0.07 µM
Ratio BBNH/Fe(III)-BBNH (IC50), RT RNase H ([4]; 10 min. preincubation): 7
IC50 ([4]; No preincubation): 0.9 ± 0.5 µM
Ratio BBNH/Fe(III)-BBNH (IC50), RT RNase H ([4]; No preincubation): > 50
